Experimental findings from patent US7700136B2, “Scutellaria barbata extract for the treatment of cancer” (priority 2005, dated 2010) are described below.

This test concerns subcutaneous cancer xenografts. The class given is in vivo, mice. Particulars: oral; BZL101 0.5 ml gavage every third day; cyclophosphamide 25 mg/Kg/day in drinking water; FIG. 6. On the procedure:
As in Example 1, above, 10^5 cells were administered to each animal subcutaneously on Day 0. The animals were divided into four groups. The control group received only normal drinking water. The cyclophosphamide only group received 25 mg/Kg/day of cyclophosphamide in their drinking water.

For the compound `O=P1(N(CCCl)CCCl)NCCCO1` (stereo not shown) [cyclophosphamide], the tumor growth inhibition result is “inhibited tumor growth as compared to the control”.
